Each compound was assayed against human FLAP (Homo sapiens (Human), UniProt P20292) (assay: FLAP binding assay (HTRF format)). Details: Table 6 (additional runs), human FLAP wild type.
Procedure: The ability of the compounds of the present invention to treat a FLAP-mediated disease and/or disorder, or associated symptoms or complications thereof, was determined using the following procedures. Binding assay data represent the average value obtained from two different assay plates, with samples run in duplicate on each plate. Human whole blood assay data represent a single replicate on an assay plate using whole blood from at least one healthy donor.
Data are expressed as a HTRF ratio.

Sequence of human FLAP (P20292 whole entry): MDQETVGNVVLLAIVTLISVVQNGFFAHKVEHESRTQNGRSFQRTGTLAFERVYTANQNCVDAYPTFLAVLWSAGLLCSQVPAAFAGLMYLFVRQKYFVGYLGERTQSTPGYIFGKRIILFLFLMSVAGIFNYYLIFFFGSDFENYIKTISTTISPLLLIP

Ki [nM] | SMILES
1.5 | CC(C)(C)[C@H](CO)NS(=O)(=O)c1ccccc1-c1ccc(-c2cnc(N)cn2)c(F)c1 [Example 150, (R)-4′-(5-aminopyrazin-2-yl)-3′-fluoro-N-(1-hydroxy-3,3-dimethylbutan-2-yl)-[1,1′-biphenyl]-2-sulfonamide]
1.3 | CC(C)(C)OC(=O)NCCNS(=O)(=O)c1ccccc1-c1ccc(-c2cnc(N)cn2)c(F)c1 [Example 151]
2.5 | CC[C@@H](CO)NS(=O)(=O)c1ccccc1-c1ccc(-c2cnc(N)cn2)c(F)c1 [Example 153, (S)-4′-(5-aminopyrazin-2-yl)-3′-fluoro-N-(1-hydroxybutan-2-yl)-[1,1′-biphenyl]-2-suifonamide]
0.4 | Nc1cnc(-c2ccc(-c3ccccc3S(=O)(=O)N[C@@H]3c4ccccc4C[C@@H]3O)cc2F)cn1 [Example 161, 4′-(5-aminopyrazin-2-yl)-3′-fluoro-N-((1R,2S)-2-hydroxy-2,3-dihydro-1H-inden-1-yl)-[1,1′-biphenyl]-2-sulfonamide]
0.5 | Nc1cnc(-c2ccc(-c3ccccc3S(=O)(=O)Nc3ccc(C(F)(F)F)nc3)cc2F)cn1 [Example 163, 4′-(5-Aminopyrazin-2-yl)-3′-fluoro-N-[6-(trifluoromethyl)pyridin-3-yl]biphenyl-2-sulfonamide]
0.8 | Nc1cnc(-c2ccc(-c3ccccc3S(=O)(=O)N3CCC(c4c[nH]cn4)CC3)cc2F)cn1 [Example 164, 5-(3-Fluoro-2′-{[4-(1H-imidazol-4′-yl)piperidin-1-yl]sulfonyl}biphenyl-4-yl)pyrazin-2-amine]
2.9 | N#CCCNS(=O)(=O)c1ccccc1-c1ccc(-c2cnc(N)cn2)c(F)c1 [Example 169, 4′-(5-Aminopyrazin-2-yl)-N-(2-cyanoethyl)-3′-fluorobiphenyl-2-sulfanamide]
3.6 | N#CCCN(C1CC1)S(=O)(=O)c1ccccc1-c1ccc(-c2cnc(N)cn2)c(F)c1 [Example 172, 4′-(5-Aminopyrazin-2-yl)-N-(2-cyanoethyl)-N-cyclopropyl-3′-fluorobiphenyl-2-suifonamide]
0.8 | CC1(NS(=O)(=O)c2ccccc2-c2ccc(-c3cnc(N)cn3)c(F)c2)COC1 [Example 173, 4′-(5-Aminopyrazin-2-yl)-3′-fluoro-N-(3-methyloxetan-3-yl)biphenyl-2-sulfonamide]
2.4 | N#CCCN1CCN(S(=O)(=O)c2ccccc2-c2ccc(-c3cnc(N)cn3)c(F)c2)CC1 [Example 174, 3-(4-{[4′-(5-Aminopyrazin-2-yl)-3′-fluoroblphenyl-2-yl]sulfonyl}piperazin-1-yl)propanenitrile]
1.4 | COC[C@H](C)NS(=O)(=O)c1ccccc1-c1ccc(-c2cnc(N)cn2)c(F)c1 [Example 175, (S)-4′-(5-aminopyrazin-2-yl)-3′-fluoro-N-(1-methoxypropan-2-yl)-[1,1′-biphenyl]-2-sulfonamide]

More lines, now with the values behind:

SMILES | Ki [nM]
Nc1cnc(-c2ccc(-c3ccccc3S(=O)(=O)N[C@H]3CCCNC3=O)cc2F)cn1 [Example 108, (S)-4′-(5-aminopyrazin-2-yl)-3′-fluoro-N-(2-oxopiperidin-3-yl)-[1,1′-biphenyl]-2-sulfonamide] | 9.5
CC(C)[C@H](CO)NS(=O)(=O)c1ccccc1-c1ccc(-c2cnc(N)cn2)c(F)c1 [Example 109] | 1.5
Nc1cnc(-c2ccc(-c3ccccc3S(=O)(=O)N[C@H]3CC[C@H](O)CC3)cc2F)cn1 [Example 110, trans 4′-(5-Aminopyrazin-2-yl)-3′-fluoro-N-(4-hydroxycyclohexyl)biphenyl-2-sulfonamide] | 2.6
Nc1cnc(-c2ccc(-c3ccccc3S(=O)(=O)N[C@H](CO)Cc3ccccc3)cc2F)cn1 [Example 116, (3),4-(5-aminopyrazin-2-yl)-3′-fluoro-N-(1-hydroxy-3-phenylpropan-2-yl)-[1,1′-biphenyl]-2-sulfonamide] | 0.7
C[C@@H]([C@@H](O)c1ccccc1)N(C)S(=O)(=O)c1ccccc1-c1ccc(-c2cnc(N)cn2)c(F)c1 [Example 118, 4′-(5-aminopyrazin-2-yl)-3′-fluoro-N-((1S,2S)-1-hydroxy-1-phenylpropan-2-yl)-N-methyl-[1,1′-biphenyl)-2-sulfonamide] | 0.4
Nc1cnc(-c2ccc(-c3ccccc3S(=O)(=O)N3CC(O)C3)cc2F)cn1 [Example 119, 1-{[4′-(5-Aminopyrazin-2-yl)-3′-fluorobiphenyl-2-yl]sulfonyl}azetidin-3-ol] | 2.7
CN[C@@H]1CCN(S(=O)(=O)c2ccccc2-c2ccc(-c3cnc(N)cn3)c(F)c2)C1 [Example 126, (R)-5-(3-Fluoro-2′-{[3-(methylamino)pyrrolidin-1-yl]sulfonyl}biphenyl-4-yl)pyrazin-2-amine] | 141
Nc1cnc(-c2ccc(-c3ccccc3S(=O)(=O)N3CCc4[nH]ncc4C3)cc2F)cn1 [Example 128, 5-[3-Fluoro-2′-(1,4,6,7-tetrahydro-5H-pyrazolo[4,3-c]pyridin-5-ylsulfonyl)biphenyl-4-yl]pyrazin-2-amine] | 0.8
Nc1cnc(-c2ccc(-c3ccccc3S(=O)(=O)NCCCCCO)cc2F)cn1 [Example 132, 4′-(5-Aminopyrazin-2-yl)-3′-fluoro-N-(5-hydroxypentyl)biphenyl-2-sulfonamide] | 2.4
Nc1cnc(-c2ccc(-c3ccccc3S(=O)(=O)N[C@H]3CC[C@@H](N)CC3)cc2F)cn1 [Example 134, N-(4-Aminocyclohexyl)-4′-(5-aminopyrazin-2-yl)-3′-fluorobiphenyl-2-sulfonamide] | 1.3
Nc1cnc(-c2ccc(-c3ccccc3S(=O)(=O)N3c4ccccc4C[C@H]3CO)cc2F)cn1 [Example 135, (S)-(1-{[4′-(5-Aminopyrazin-2-yl)-3′-fluorobiphenyl-2-yl]sulfonyl}-2,3-dihydro-1H-indol-2-yl)methanol] | 0.4
Nc1cnc(-c2ccc(-c3ccccc3S(=O)(=O)N(CCO)C3CCCCC3)cc2F)cn1 [Example 136, 4′-(5-Aminopyrazin-2-yl)-N-cyclohexyl-3′-fluoro-N-(2-hydroxyethyl)biphenyl-2-sulfonamide] | 0.5
Nc1cnc(-c2ccc(-c3ccccc3S(=O)(=O)N(C3CCOCC3)C3CC3)cc2F)cn1 [Example 140, 4′-(5-Aminopyrazin-2-yl)-N-cyclopropyl-3′-fluoro-N-(tetrahydro-2H-pyran-4-yl)biphenyl-2-sulfonamide] | 1.4
Nc1cnc(-c2ccc(-c3ccccc3S(=O)(=O)N3C[C@@H]4C(N)[C@@H]4C3)cc2F)cn1 (stereo partly drawn) [Example 143, (1R,5S)-3-((4′-(5-aminopyrazin-2-yl)-3′-fluoro-[1,1′-biphenyl]-2-yl)sulfonyl)-3-azabicyclo[3.1.0]hexan-6-amine] | 8.5
CC(CO)(CO)NS(=O)(=O)c1ccccc1-c1ccc(-c2cnc(N)cn2)c(F)c1 [Example 147, 4′-(5-Aminopyrazin-2-yl)-3′-fluora-N-[2-hydroxy-1-(hydroxymethyl)-1-methylethyl]piphenyl-2-sulfonamide] | 0.6
CC(C)[C@@H](CO)NS(=O)(=O)c1ccccc1-c1ccc(-c2cnc(N)cn2)c(F)c1 [Example 148, (S)-4′-(5-aminopyrazin-2-yl)-3′-fluoro-N-(1-hydroxy-3-methylbutan-2-yl)-[1,1′-biphenyl]-2-sulfonamide] | 2.5

Same assay, conditions: human FLAP wild type, a calculated value of 0.000 indicates Ki less than 1 nM

Ki [nM] | SMILES
< 1 | C[C@@H]([C@@H](O)c1ccccc1)N(C)S(=O)(=O)c1ccccc1-c1ccc(-c2cnc(N)cn2)c(F)c1 [Example 118, 4′-(5-aminopyrazin-2-yl)-3′-fluoro-N-((1S,2S)-1-hydroxy-1-phenylpropan-2-yl)-N-methyl-[1,1′-biphenyl)-2-sulfonamide]
< 1 | Nc1cnc(-c2ccc(-c3ccccc3S(=O)(=O)N3c4ccccc4C[C@H]3CO)cc2F)cn1 [Example 135, (S)-(1-{[4′-(5-Aminopyrazin-2-yl)-3′-fluorobiphenyl-2-yl]sulfonyl}-2,3-dihydro-1H-indol-2-yl)methanol]
< 1 | Nc1cnc(-c2ccc(-c3ccccc3S(=O)(=O)N[C@@H]3c4ccccc4C[C@@H]3O)cc2F)cn1 [Example 161, 4′-(5-aminopyrazin-2-yl)-3′-fluoro-N-((1R,2S)-2-hydroxy-2,3-dihydro-1H-inden-1-yl)-[1,1′-biphenyl]-2-sulfonamide]
